Source: PubChem BioAssay AID489032 (Sanford-Burnham Center for Chemical Genomics, 2010)
Active and inactive are the calls of the source. The rule behind the calls is not given here.

Test system: UPR adaptive arm reporter cells, luciferase luminescence
Test: adaptive unfolded protein response reporter activation – cell-based, luciferase luminescence, dose response (AID 489032)

| Structure (SMILES) | EC50 |
| --- | --- |
| C/C(=N\Nc1ncnc2sc(C)c(C)c12)c1ccccn1 | > 80 µM (inactive) |
| COc1cc(-c2ccc3oc(-c4ccsc4)cc3c2)cc(OC)c1OC | > 80 µM (inactive) |
| O=C(Cc1ccccc1)c1c[nH]c(C(=O)C(Cl)(Cl)Cl)c1 | > 80 µM (inactive) |
| COc1ccc2cc1Oc1ccc(cc1)C[C@H]1c3c(cc(OC)c4c3Oc3c(ccc5c3[C@H](C2)N(C)CC5)O4)CCN1C | > 80 µM (inactive) |
| CCOC(=O)c1sc(-c2ccccc2)cc1NC(=O)Nc1ccc([N+](=O)[O-])cc1 | 24.2 µM (inactive) |
| COc1ccc(CCn2c(C3CCCCC3)nc3c(c(=O)c4ccccc4n3C)c2=O)cc1 | > 80 µM (inactive) |
| CCOc1cc(/C=C2/NC(=S)NC2=O)ccc1OCc1ccc([N+](=O)[O-])cc1 | > 80 µM (inactive) |
| O=Cc1cc2ccccc2nc1SCc1ccc(Cl)c(Cl)c1 | 52.3 µM (inactive) |
| c1ccc(N=Nc2ccc3cccccc2-3)cc1 | > 80 µM (inactive) |
| CCOC(=O)c1c2ccc(OCC(=O)N/N=C/c3ccc(C)cc3)cc2n2ccccc12 | > 80 µM (inactive) |
| O=C(/C=C1\NC2(CCCC2)Cc2ccccc21)C(=O)N/N=C/c1ccc(O)c(O)c1 | 32 µM (inactive) |
| CCc1ccc(-c2nc(CN3CCC(C(=O)NCCN(CC)c4ccccc4)CC3)c(C)o2)cc1 | > 80 µM (inactive) |
| COC(=O)c1c(NC(=O)c2nc3ccccc3s2)sc2c1CC(C)(C)NC2(C)C | > 80 µM (inactive) |
| COc1cc(/C=C2/C(=N)N3C=CSC3=NC2=O)ccc1OCCCOc1cc(C)ccc1C | > 80 µM (inactive) |
| COc1cc(SC#N)ccc1N=Cc1c(C)[nH]n(-c2ccc(Cl)cc2)c1=O | > 80 µM (inactive) |
| O=C1NC(=O)C(=Cc2cn(CCOc3ccc4c(c3)OCO4)c3ccccc23)C(=O)N1 | 31.2 µM (inactive) |
| NC(=S)N/N=C/c1ccc(C23CC4CC(CC(C4)C2)C3)cc1 | 40 µM (inactive) |
| O=C(Nc1ccc2oc(-c3ccccc3Cl)nc2c1)c1cncc(Br)c1 | > 80 µM (inactive) |
| CCOC(=O)C(=CNc1nc(-c2ccccc2)c(C(=O)Nc2ccc(-c3ccccc3)cc2)s1)C(=O)OCC | 24.7 µM (inactive) |
| CCn1c(/C=C/c2c(C)[nH]c3ccccc23)nc2ccccc2c1=O | > 80 µM (inactive) |
| O=C(Nc1ccc(Oc2ccc(NC(=O)Nc3ccccc3Cl)cc2)cc1)Nc1ccccc1Cl | > 80 µM (inactive) |
| Cc1ccc2c(c1)C(c1ccc(N3CCOCC3)cc1)=NNC(c1cccs1)=N2 | 46.9 µM (inactive) |
| Cc1ccc2c(=O)[nH]c(Nc3nc(C)cc(-c4ccccc4)n3)nc2c1 | > 80 µM (inactive) |

| Structure (SMILES) | EC50 |
| --- | --- |
| Cc1ccc(NC(=O)Cn2c(/C=C/c3ccccc3)nc3ccccc32)cc1C | > 80 µM (inactive) |
| O=C(NCc1ccccc1Br)c1cccc2c1C(=O)c1ccc(-c3ccc(OC(F)(F)F)cc3)cc1S2(=O)=O | 19.2 µM |
| N/C(=N\c1nc(CSc2ccccn2)cc(=O)[nH]1)Nc1ccc(Cl)cc1Cl | > 80 µM (inactive) |
| Oc1ccc(CN2CCC(Cc3ccccc3)CC2)c2cccnc12 | > 80 µM (inactive) |
| COc1ccc2cc3c(N)nn(C(=O)C4CCC(C(C)(C)C)CC4)c3nc2c1 (stereo not given) | > 80 µM (inactive) |
| C=CCn1c(O)c(C2=c3ccccc3=NC2=O)sc1=Nc1ccc(O)cc1 | 38.7 µM (inactive) |
| Cc1ccc(S(=O)(=O)Cc2cc(F)c([N+](=O)[O-])cc2[N+](=O)[O-])cc1 | > 80 µM (inactive) |
| Cc1ccc(S(=O)(=O)N(CC(=O)N/N=C/c2ccc(F)cc2)c2cccc3cccnc23)cc1 | > 80 µM (inactive) |
| C#CCn1c(=NC(=O)c2ccc(Cl)s2)sc2cccc(OC)c21 | > 80 µM (inactive) |
| CCC(=O)Nc1cccc(C(=O)/C=C/c2ccc(F)cc2)c1 | > 80 µM (inactive) |
| N#Cc1ccccc1/C=N/Nc1nc(-c2ccccc2)c2cc(Cl)ccc2n1 | > 80 µM (inactive) |
| CC1CCCCC1N1CN=C(Nc2nc3ccccc3s2)NC1 (stereo not given) | > 80 µM (inactive) |
| COc1ccc(C2c3ccc4ccccc4c3Oc3ncn(CCCN(C)C)c(=N)c32)cc1 (stereo not given) | > 80 µM (inactive) |
| O=C(Nc1nc2ccccc2s1)c1cc2c(s1)-c1ccccc1OC2 | 44.9 µM (inactive) |
| CCc1cccc(CC)c1NC(=O)/C(C#N)=C/c1ccccc1C(F)(F)F | > 80 µM (inactive) |
| CC1C/C(=N/Nc2nc3ccccc3[nH]2)CC(C)(C)C1 (stereo not given) | > 80 µM (inactive) |
| O=C(Nc1ccc(C(F)(F)F)cc1)c1cc(-c2cccnc2)nc2ccc(Br)cc12 | 15.6 µM |
| CCOc1ccc(-n2nc3ccc(NC(=O)c4ccc5c(c4)OCCO5)cc3n2)cc1 | > 80 µM (inactive) |
| Nc1nc(SCc2ccc(Cl)cc2Cl)nc2nc3c(cc12)CCCC3 | > 80 µM (inactive) |
| CC(C)Cn1c2c(c(=O)[nH]c1=O)C(C(F)(F)F)(C(F)(F)F)N=C(CCC1CCCCC1)N2 | > 80 µM (inactive) |
| Cc1nc(NC(=O)c2cc3c(C)nn(-c4ccccc4)c3s2)sc1C(=O)Nc1ccccc1 | 41.3 µM (inactive) |
| C/C(CC(C)(C)C1CCCCC1)=N\NC(N)=S | > 80 µM (inactive) |
| CC(C)(C)c1cc(-c2nc(N)nc(N)n2)c(O)c(C(C)(C)C)c1 | 38.8 µM (inactive) |

| Structure (SMILES) | EC50 |
| --- | --- |
| CC(C)N(C(=O)[C@H]1C[C@H](CC(=O)NCC23CC4CC(CC(C4)C2)C3)C(=O)N2CCc3c([nH]c4ccc(Cl)cc34)[C@]12C)C(C)C | > 80 µM (inactive) |
| CCOc1ccc(NC(=S)NC(=O)/C=C/c2ccc(C)cc2)c([N+](=O)[O-])c1 | > 80 µM (inactive) |
| Cc1ccc2c(c1)C(=O)C(=O)N2Cc1ccc(Cl)cc1 | 57.2 µM (inactive) |
| COc1ccc2cc1Oc1ccc(cc1)CC1c3c(cc(OC)c4c3Oc3cc5c(cc3O4)CCNC5C2)CCN1C (stereo not given) | > 80 µM (inactive) |
| O=C(C[C@H]1C[C@H](C(=O)N2CCCCC2)[C@@]2(CCc3ccccc3)c3[nH]c4ccc(Cl)cc4c3CCN2C1=O)NCCC1=CCCCC1 | > 80 µM (inactive) |
| O=C(/C=C/c1ccco1)NC(=S)Nc1ccc(O)c(-c2nc3ccccc3s2)c1 | 10.4 µM |
| COc1ccc2c(c1)NC(c1cc(Cl)cc(Cl)c1O)c1cccn1-2 (stereo not given) | 33.3 µM (inactive) |
| CCOC(=O)N1CCN(S(=O)(=O)c2ccc(C(=O)Nc3nc4c(s3)CC(C)CC4)cc2)CC1 (stereo not given) | > 80 µM (inactive) |
| CCCCCCCCCCOC(=O)Cn1c(COc2ccc(Cl)cc2)[n+](C)c2ccccc21 | > 80 µM (inactive) |
| O=C(/C=C/c1ccccc1)c1ccccc1O | > 80 µM (inactive) |
| O=c1[nH]c(O)c(/C=C2/C=CC(c3cc(Cl)ccc3Cl)=N2)c(=O)[nH]1 | 9.68 µM |
| O=C(CC1C[C@H](C(=O)N2CCCCC2)[C@@]2(CCc3ccccc3)c3[nH]c4ccccc4c3CCN2C1=O)NCCC1=CCCCC1 (stereo not given in full) | 43 µM (inactive) |
| CCc1ccccc1NC(=O)C(CC)Sc1nc2cc3c(cc2c(=O)n1Cc1ccco1)OCO3 (stereo not given) | 14.6 µM |
| N#CCC(=O)N/N=C/c1cn(Cc2cccc3ccccc23)c2ccccc12 | > 80 µM (inactive) |
| Cc1ccc(-c2ccnc(-c3ccc(O)cc3)n2)cc1 | 63.8 µM (inactive) |
| COc1cccc(-c2c(-c3cc(OC)cc(OC)c3)n(C)c3ccc(-c4cnc(N5CCOCC5)nc4)cc23)c1 | 54.9 µM (inactive) |
| Cc1ccc(Cn2c(C(C)Nc3nc(-c4ccc(F)cc4)cs3)nc3cc(Cl)c(Cl)cc32)cc1 (stereo not given) | > 80 µM (inactive) |
| O=C(NC1CCCCC1)c1cccc2c1C(=O)c1ccc(-c3ccc(OC(F)(F)F)cc3)cc1S2(=O)=O | > 80 µM (inactive) |
| Clc1ccc2c(c1)C(N1CCNCC1)Cc1ccccc1S2 (stereo not given) | > 80 µM (inactive) |
| CCOC(=O)C1=C(C)n2c(s/c(=C/c3cccc([N+](=O)[O-])c3)c2=O)=NC1c1ccc(O)c(OC)c1 (stereo not given) | > 80 µM (inactive) |
| CCOC(=O)c1c(NC(=O)/C=C/C(=O)O)sc(C)c1-c1ccc(C(C)(C)C)cc1 | 25.6 µM (inactive) |
| Oc1ccc(/C=N/Nc2ncnc3c2ncn3Cc2ccccc2)cc1O | 11 µM |
| C/C(Cl)=C\Cn1c(O)c(N=NC(N)=S)c2cc(Br)ccc21 | 4.06 µM |

| Structure (SMILES) | EC50 |
| --- | --- |
| Cc1cc(C)c2c(c1)/C(=N/Nc1ccc(S(N)(=O)=O)cc1[N+](=O)[O-])CCC2 | > 80 µM (inactive) |
| Cc1ccc(/C=C/C(=O)c2cc(Br)ccc2OC(=O)c2ccco2)cc1 | 37.9 µM (inactive) |
| CC(C)N=C(NS(=O)(=O)c1ccccc1)C(Cl)(Cl)Cl | > 80 µM (inactive) |
| COc1ccc(OC)c(-c2nnc3n2N=C(c2ccc(OC)c(OCC4CC4)c2)CS3)c1 | > 80 µM (inactive) |
| CCc1sc2nc(SCC(=O)Nc3cc(C)on3)n(-c3cccc(OC)c3)c(=O)c2c1C | > 80 µM (inactive) |
| Brc1ccc(-c2ccc(/C=N/Nc3nncc(-c4ccccc4)n3)o2)cc1 | 77.6 µM (inactive) |
| COc1ccc(Cn2c(SCc3cc(C)ccc3C)nc3cc(OC)c(OC)cc3c2=N)cc1 | > 80 µM (inactive) |
| Cn1nc(C(F)(F)F)c(/C=N/OC(=O)c2ccccc2Cl)c1SCc1ccccc1Cl | 22.2 µM (inactive) |
| COc1ccc(-c2csc(NC(=S)NC(=O)/C=C/c3ccccc3)n2)cc1Br | 13.2 µM |
| Cc1ccc(Nc2nc(NCCO)c3ccccc3n2)cc1C | > 80 µM (inactive) |
| CN1C(=O)/C(=C/c2ccc(C(=O)NC3CCCC3)cc2)Oc2ccccc21 | > 80 µM (inactive) |
| N#Cc1cc2c(nc1SCC(=O)Nc1sc3c(c1C#N)CCC3)CCCC2 | > 80 µM (inactive) |
| COc1ccccc1Nc1nnc(SCC(=O)NC(=O)Nc2ccc3c(c2)OCCO3)s1 | > 80 µM (inactive) |
| COC(=O)c1c(NC(=O)CC2Nc3ccccc3NC2=O)sc(C)c1C (stereo not given) | > 80 µM (inactive) |
| c1cc(SC2CCCCC2)cc(-c2nc3cnccn3c2NC2CCCCC2)c1 | 28.9 µM (inactive) |
| CCCCN(CC)S(=O)(=O)c1ccc(C(=O)N(CCCN(C)C)c2nc3cc(C)cc(C)c3s2)cc1 | > 80 µM (inactive) |
| Cc1c(C(=O)Nc2nccs2)oc2ccc(Br)cc12 | > 80 µM (inactive) |
| C#CCn1c(=NC(=O)c2ccc(S(=O)(=O)N3CCc4ccccc4C3)cc2)sc2cc(S(N)(=O)=O)ccc21 | > 80 µM (inactive) |
| CCOc1ccc(/C=C/C(O)=C2/C(=O)NC3(C)CC2c2ccccc2O3)cc1OC (stereo not given) | > 80 µM (inactive) |
| O=C(c1ccc2c(c1)[nH]c(=S)n1c3ccccc3nc21)N1CCN(c2cccc(Cl)c2)CC1 | > 80 µM (inactive) |
| CC1=CC(C)[C@H](/C=N/n2c(=O)[nH]c3c([nH]c4ccc(Br)cc43)c2=O)C(C)C1 (stereo not given in full) | > 80 µM (inactive) |
